Seven compounds from the NIST ThermoML archive (doi:10.1016/j.jct.2018.05.023) can be followed below.

± gives the expanded uncertainty stated by the source.

Assay in one data set: not given
Conditions: Crystal; DTA.
Turning to `C1CCCCC1` [cyclohexane], the Normal melting temperature was 7 ± 1.1 °C.

For `[Ga]` [gallium], the Normal melting temperature was 30.2 ± 1.1 °C.

As for `CCCCCCCCCCCCCCCCCCCC` [eicosane], the Normal melting temperature was determined as 35.0 ± 1.1 °C.

As for `CCCCCCCCCCCCCC` [tetradecane], the Normal melting temperature is 5.8 ± 1.1 °C.

On to `CCCCCCCCCCCC` [dodecane], for which the Normal melting temperature is -9.4 ± 1.1 °C.

`CCCCCCCCCCCCCCCC` [hexadecane]: the Normal melting temperature was 18 ± 1.1 °C.

As for `O` [water], the Normal melting temperature worked out at 0.4 ± 1.1 °C.

The next data set in a line: Molar enthalpy of transition or fusion. Conditions: Crystal; DSC.
With `[Ga]` [gallium], the “Molar enthalpy of transition or fusion” value was 5.81 ± 0.5 kJ/mol.
